From US3941842A, “P,P'-Disubstituted α-trichloromethylbenzylanilines” (priority 1972, dated 1976)
Several values for one entry are separate records, joined by “and”; a condition that tells them apart may be missing. Equal values may be shown once.

Tests used:
[1] = Model ecosystem: distribution, ecological magnification and Biodegradability Index; conditions: 33 days, 5.0 mg 3H-ethoxyaniline to Sorghum
From the text: After the amounts of the various metabolites have been calculated and a determination is made as to which of the metabolites are to be designated as "polar" and which are to be designated as "non-polar", a Biodegradability Index (amount of polar metabolites/amount of nonpolar metabolites) may be calculated. Remembering that nonpolar compounds, such as DDT are readily soluble in the fatty tissues, but are not readily soluble in water based solutions, and that the cell fluid is essentially a water based solution, the lower the Biodegradability Index, the lower the amount of biodegradability of the compound. The higher the amount of polarity, the greater the likelihood that the polar compound will dissolve in water, a very polar compound, and be eliminated from the cell.
The environmental fate of any new pesticide is a factor of paramount importance in determining how and where it might be used. The behavior of ^3 H-α-trichloromethyl-p-ethoxybenzyl-p-ethoxyaniline has been studied by the model ecosystem technique following application of 5.0 mg. of labeled compound to Sorghum plants. A summary of
metabolites from the organisms in the model ecosystem after 33 days were
identified by cochromatography with standards of known constitution, by
appropriate chromogenic reagents, and by high-resolution mass
spectrometry. The data of Table IV indicate the O-dealkylation of
Food Chem. 1 (1972). Ethoxychlor was found in the snail to 58.6 ppm and in the fish to 0.92 ppm, along with its ethylene and the mono- and bis-phenols formed by O-dealkylation. The ecological magnification (E.M.) of ethoxychlor, defined as the ratio of the parent material in the fish to the concentration in the water, was 1500-fold as compared with an E.M. of only 0.7-fold for the ethoxyaniline.
Comparing the Biodegradability Indices (B.I.=total recovered polar metabolites/total recovered nonpolar metabolites) the values are 0.44 for ethoxychlor and 2.0 for ethoxyaniline.

Culex fatigans larvae = experiment: LC50 to Culex fatigans larvae; format: in vivo, Culex pipiens quinquefasciatus Say
From the text: (§1) World Health Org. 363 (1971). […] Food Chem. 1145 (1970). […] Sci. Tech. 709 (1971). The results are detailed in Table II. ##SPC1##

Musca domestica Rsp = experiment: Topical LD50 to adult female RSP houseflies; conditions: for LD50: Musca domestica, read-out: Topical LD50, Musca domestica Rsp, Alone; for LD50 / Topical LD50, Musca domestica Rsp, with pb: topical; for Topical LD50, Musca domestica Rsp, with pb: RSP strain, synergized with piperonyl butoxide; for SR, Musca domestica Rsp: synergistic ratio: LD50 alone/LD50 synergized with piperonyl butoxide
Experimental: (§2) The compounds of the present invention were tested for insecticidal activity by standard methods, and compared with the insecticidal activities of DDT and symmetrical analogs of DDT, such methoxychlor. Toxicological methods for the determination of the topical LD50 values to adult female SNAIDM and RSP houseflies, Musca domestica L. and to Phormia regina, and LC50 values to Culex pipiens quinquefasciatus Say, and Anopheles albimanus Weid mosquitoes were described by Metcalf el al., 44 Bull. World Health Org. 363 (1971). The methods for evaluation of metabolism by mouse liver homogenate and by female RSP housefly and salt-marsh caterpillar larvae Estigmene acrea Drury, were described by Kapoor et al., 18 J. Agr. Food Chem. 1145 (1970). The techniques for model eocsystem evluation were described by Metcalf et al., 5 J. Environ. Sci. Tech. 709 (1971).
(§3) Since piperonyl butoxide serves to block the action of MFO, the synergized LD50 values express the intrinsic toxicity of the compounds. With the detoxifying action of MFO enzymes blocked, the intrinsic toxicity of the compounds can thus be measured.

[2] = test system: Anopheles albimanus larvae; experiment: LC50 to Anopheles albimanus larvae; format: in vivo, Anopheles albimanus Weid
From the text: as §1

[3] = test system: Musca domestica (SNAIDM and RSP strains), Phormia regina, Culex fatigans and Anopheles albimanus; experiment: Insecticidal activity over the test insects (Table II, summarised in words); format: in vivo; conditions: overall, test insects of Table II
Experimental: as §2, §3

Musca domestica Snaidm = experiment: Topical LD50 to adult female SNAIDM houseflies; conditions: for LD50: Musca domestica, read-out: Topical LD50, Musca domestica Snaidm, Alone; for LD50 / Topical LD50, Musca domestica Snaidm, with pb: topical; for Topical LD50, Musca domestica Snaidm, with pb: SNAIDM strain, synergized with piperonyl butoxide; for SR, Musca domestica Snaidm: synergistic ratio: LD50 alone/LD50 synergized with piperonyl butoxide
Experimental: as §2, §3

Phormia regina = experiment: whole plant or invertebrate; conditions: for LD50: Phormia regina, read-out: Topical LD50, Phormia regina, Alone; for LD50 / Topical LD50, Phormia regina, with pb: topical; for Topical LD50, Phormia regina, with pb: synergized with piperonyl butoxide; for SR, Phormia regina: synergistic ratio: LD50 alone/LD50 synergized with piperonyl butoxide
Experimental: as §2, with “363 (1971).” left out, “Food Chem. 1145 (1970).” left out, “Tech.” for “Tech. 709 (1971).”
as §3

Row | Compound | Concentration of ethoxyaniline equivalents in Culex (mosquito) [1] | Concentration of ethoxyaniline equivalents in Gambusia (fish) [1] | Concentration of ethoxyaniline equivalents in H2O [1] | Concentration of ethoxyaniline equivalents in Oedogonium (algae) [1] | Concentration of ethoxyaniline equivalents in Physa (snail) [1] | LC50 Culex fatigans larvae (Culex fatigans larvae) | LD50 (Musca domestica Rsp) | Topical LD50, Musca domestica Rsp, with pb (Musca domestica Rsp) | SR, Musca domestica Rsp (Musca domestica Rsp) | LC50 Anopheles albimanus larvae [2] | insecticidal effectiveness / toxicity (in words) [3] | LD50 (Musca domestica Snaidm) | Topical LD50, Musca domestica Snaidm, with pb (Musca domestica Snaidm) | SR, Musca domestica Snaidm (Musca domestica Snaidm) | LD50 (Phormia regina) | Topical LD50, Phormia regina, with pb (Phormia regina) | synergism in Phormia (in words) (Phormia regina; with piperonyl butoxide) | SR, Phormia regina (Phormia regina)
1 | CCOc1ccc(C(=O)O)cc1 [C2 H5 OC6 H4 C(O)OH, p-ethoxybenzoic acid] | 0.06 ppm | 0.03 ppm | 0.123 ppm | 0.38 ppm | 1.800 ppm |  |  |  |  |  |  |  |  |  |  |  |  | 
2 | CCOc1ccc(NC(c2ccc(O)cc2)C(Cl)(Cl)Cl)cc1 (stereo not drawn) [C2 H5 OC6 H4 NHCH(CCl3)C6 H4 OH, α-trichloromethyl-p-hydroxybenzyl-p-ethoxyaniline] | 0.13 ppm | 0.08 ppm | 0.031 ppm | 0.43 ppm | 2.02 ppm |  |  |  |  |  |  |  |  |  |  |  |  | 
3 | COc1ccc(NC(c2ccc(OC)cc2)C(Cl)(Cl)Cl)cc1 (stereo not shown) [Compound II] |  |  |  |  |  | > 1.0 ppm | 500 mg/kg | 13.5 μg per g | 37 and > 37 | 0.64 ppm | very low toxicity | > 500 mg/kg | 5.5 μg per g | 100 and > 100 | 118 mg/kg | 35.0 μg per g | substantially synergized in Phormia | 
4 | CCOc1ccc(NC(c2ccc3c(c2)OCO3)C(Cl)(Cl)Cl)cc1 (stereo not shown) [Compound XVII] |  |  |  |  |  | 0.23 ppm | 35.5 mg/kg | 11.0 μg per g | 3.2 | 0.25 ppm |  | 19.5 mg/kg | 3.8 μg per g | 5.1 | > 250 mg/kg | 32.5 μg per g |  | > 7.7
5 | Cc1ccc(NC(c2ccc(Cl)cc2)C(Cl)(Cl)Cl)cc1 (stereo not shown) [Compound XVI] |  |  |  |  |  | 0.18 ppm | 125 mg/kg | 30 μg per g | 4.2 | 0.14 ppm |  | 65 mg/kg | 16 μg per g | 4.1 | 36.2 mg/kg | 25 μg per g |  | 1.45
6 | Cc1ccc(C(Nc2ccc(Cl)cc2)C(Cl)(Cl)Cl)cc1 (stereo not shown) [Compound XV] |  |  |  |  |  | 0.066 ppm | ~500 mg/kg | 36.0 μg per g | 14 | 0.13 ppm |  | 90 mg/kg | 21.0 μg per g | 4.3 | 72.5 mg/kg | 62.5 μg per g |  | 1.1
